The values below come from patent US6552071B2, “Methods for treating cell death diseases and inflammation” (President and Fellows of Harvard College, priority 1999, dated 2003).

Type in all cases: cell-based
One test concerns NF-κB. Briefly: NF-κB-luciferase reporter in LPS-treated BalbC/3T3 cells. As for the experimental part:
FIG. 5A is a graph of the effect of the active Eclipta prostrata L. fraction on induction of NF-κB and caspase-11. BalbC/3T3 cells were transfected with an NF-κB luciferase report construct and treated with the ethylacetate fraction of Eclipta prostrata L. ethylacetate extract (EA) or 11,12-dihydroxy coumestan (10 mg/ml) for 1 hour and then treated with 2 μg/ml LPS for 9 hours. Luciferase activity was then determined.
FIG. 28 is a graph of the inhibition of NF-κB activation by synthetic wedelolactone. BalbC/3T3 cells were transfected with NF-κB luciferase construct. Twelve hours later, cells were treated with 0, 20 μM, 40 μM, 60 μM, or 100 μM of wedelolactone for 1 hour and then 2 μg/ml LPS for additional 6 hours. Luciferase activity was then quantified.
Since caspase-11 is induced through the NF-κB pathway, wedelolactone (FIG. 3) may inhibit the activity of NF-κB. To examine this possibility, BalbC/3T3 cells were transfected with an NF-κB-luciferase reporter plasmid (containing an NF-κB response element).
The ability of synthetic wedelolactone to inhibit the activation of NF-κB induced by LPS was also assessed. BalbC/3T3 cells were transfected with a plasmid encoding an NF-κB-luciferase reporter protein in the presence of varying concentrations of wedelolactone. […] These experiments provided the final confirmation that wedelolactone is an inhibitor of NF-κB activation and caspase-11 induction. Thus, wedelolactone can be used to treat cell death diseases and inflammation.
On the technique in general: Reporter assays use an easily measured gene product as a stand-in for the process of interest.

The next test relates to caspase-11. Briefly: LPS-induced caspase-11 expression in BalbC/3T3 cells, Western blot. As for the experimental part:
FIG. 27 is a graph of the inhibition of caspase-11 induction by synthetic wedelolactone. BalbC/3T3 cells were treated with 0, 30 μM, 40 μM, 60μM, 80 μM or 100 μM of wedelolactone for 1 hour and LPS for an additional 6 hours. The induction of caspase-11 was measured by Western blot analysis and quantification.
To identify modulators of caspase-11 expression or activity, a tissue culture model of caspase-11 induction was generated. In this model, BalbC/3T3 cells normally express undetectable levels of caspase-11 biological activity, as measured by Western blot analysis. […] A caspase-11 modulatory compound may be administered to the cells prior to administration of LPS, and then caspase-11 biological activity may be measured at a specific time after addition of LPS to the culture media of the cells. A caspase-11 modulatory compound that suppresses the LPS-induced biological activity of caspase-11 is considered to be a compound that modulates not only caspase-11 expression, but also cell death or inflammation.
BalbC/3T3 cells were next preincubated with an ethanol extract of the plant Eclipta prostrata L. (454 g of Eclipta prostrata L. was extracted into 8 ml of ethanol; 5 μl of extract/ml of tissue culture media was applied to the cell culture) for 6 hours, followed by treatment with LPS for 6 hours, as described above. The level of caspase-11 protein expression was then measured.

A further test deals with NF-κB p105 mRNA. Briefly: Atlas DNA array mRNA expression in LPS-treated BalbC/3T3 cells. As to conditions: 100 μM 1 h, then LPS 6 h, versus LPS only. An excerpt: (§1) One hundred μM wedelolactone reduced the expression of NF-κB p105 mRNA in LPS-treated BalbC/3T3 cells at the ratio of 1 to 8.
A further test has as its system STAT3. Described as above. As to conditions: 100 μM 1 h, then LPS 6 h.
Description: as §1

A further test has as its system STAT1. The test is described as above. As to conditions: 100 μM 1 h, then LPS 6 h.
Description: as §1

With `O=c1oc2ccccc2c2oc3cc(O)c(O)cc3c12` [11,12-dihydroxy coumestan, reference compound], the “Inhibition of LPS induction of NF-κB luciferase activity (FIG. 5A)” value in the test with NF-κB (1 hour pre-treatment, 2 μg/ml LPS 9 hours, coumestan 10 mg/ml) was “did not inhibit NF-κB induction”. Moreover, in the test with caspase-11 (general statement in Example 3), the “Inhibition of caspase-11 expression” value is “does not inhibit caspase-11 expression”.

A word on the IC50: it is the concentration that gives 50% inhibition. Consider `COc1cc(O)c2c(c1)oc(=O)c1c3cc(O)c(O)cc3oc21` [wedelolactone], for which the “Inhibition of LPS-induced activation of the NF-κB promoter (FIG. 28)” value with NF-κB (0-100 μM 1 hour, 2 μg/ml LPS 6 hours, same concentration range as caspase-11 inhibition) is listed as “inhibited the activation of the NF-κB promoter”. Moreover, in the test with NF-κB (60 and 100 μM), the “Inhibition of NF-κB transcriptional activity induced by LPS” value is “inhibited the NF-κB transcriptional activity”. Further, the “Suppression of LPS-induced caspase-11 expression” value in the test with caspase-11 (70 μg/ml, 6 hour pre-treatment, then LPS) was “suppressed caspase-11 expression”. In addition, in the test with caspase-11 (BALB/c3T3, BalbC/3T3 cells, wedelolactone 1 hour, LPS additional 6 hours, read-out: IC50, inhibition of induction of caspase-11 by LPS), the IC50 is about 50 µM. Moreover, the “Reduction of NF-κB p105 mRNA expression, ratio” value in the test with NF-κB p105 mRNA is recorded as 1 to 8. In the test on STAT3, the “STAT3 expression level, % of control cells treated with LPS only” value stood at 30%. The “STAT1 expression level, % of control cells treated with LPS only” value in the test on STAT1 is 4%.
